The values that follow come from patent US10626081B2, “Farnesoid X receptor agonists and uses thereof” (Metacrine, Inc., priority 2015, dated 2020).

Some results are limits rather than exact numbers.

The target in experiment [1] is T1, FXR (Homo sapiens, UniProt Q96RI1).
T1 construct: expressed in transfected cells; host or cells: CV-1 cells
T1 sequence (Q96RI1 1-486): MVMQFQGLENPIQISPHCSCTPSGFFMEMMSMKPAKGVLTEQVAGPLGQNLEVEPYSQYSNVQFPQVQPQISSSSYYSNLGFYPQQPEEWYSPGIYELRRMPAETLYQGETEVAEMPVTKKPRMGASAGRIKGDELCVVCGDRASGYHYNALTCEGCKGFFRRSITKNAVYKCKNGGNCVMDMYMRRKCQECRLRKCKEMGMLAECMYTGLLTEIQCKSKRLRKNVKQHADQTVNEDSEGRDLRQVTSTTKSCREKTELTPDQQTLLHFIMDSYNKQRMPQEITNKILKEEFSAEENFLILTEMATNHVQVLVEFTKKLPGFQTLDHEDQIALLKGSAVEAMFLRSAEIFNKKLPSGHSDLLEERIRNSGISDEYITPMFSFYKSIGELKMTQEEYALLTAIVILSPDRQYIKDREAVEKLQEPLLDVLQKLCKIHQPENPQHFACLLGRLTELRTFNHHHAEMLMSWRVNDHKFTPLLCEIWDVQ
T1 sequence (P19793 1-462 partner): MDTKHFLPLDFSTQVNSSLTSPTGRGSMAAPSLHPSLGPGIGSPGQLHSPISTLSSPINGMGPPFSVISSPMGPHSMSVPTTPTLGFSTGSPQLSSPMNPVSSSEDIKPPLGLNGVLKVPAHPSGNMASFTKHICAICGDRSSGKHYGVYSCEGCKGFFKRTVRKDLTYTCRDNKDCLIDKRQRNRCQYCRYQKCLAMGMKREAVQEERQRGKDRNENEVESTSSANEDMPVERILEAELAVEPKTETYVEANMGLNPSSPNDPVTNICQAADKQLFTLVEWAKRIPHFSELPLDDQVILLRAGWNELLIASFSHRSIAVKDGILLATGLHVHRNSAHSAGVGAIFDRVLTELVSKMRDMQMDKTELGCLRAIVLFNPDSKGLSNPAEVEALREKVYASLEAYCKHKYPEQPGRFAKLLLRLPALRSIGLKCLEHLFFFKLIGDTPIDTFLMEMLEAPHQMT
The experiment is described as follows: In Vitro FXR Assay (PGL3): luciferase reporter in transfected CV-1 cells. The note with it: CV-1 cells transfected with hFXR, hRXR, PGL3-ECRE*6-luc; 18 h incubation; luminescence. Format: cell-based. How it is done:
Example B-1: In Vitro FXR Assay (PGL3)
CV-1 cells were seeded at a density of 2,000,000 cells in a T175 flask with DMEM+10% charcoal double-stripped FBS and incubated at 37° C. in a 5% CO2 for 18 h (O/N).
After 18 h of incubation, the medium in the T175 flask was changed with fresh DMEM+10% charcoal super-stripped serum.
To prepare the transfection reaction mixture, the transfection reagent (X-tremeGENE HP from Roche, Cat #06 366 236 001) was added in to a 1.5 mL microcentrifuge tube labelled “A” at a ratio of 1:3 (DNA in transfection reagent in μL). OptiMEM medium (Life Technologies, Cat #31985-062) was added accordingly to provide a total volume of 1 mL. The transfection reaction mixture was then briefly vortexed and incubated at room temperature for 5 minutes.
In a separate 1.5 mL microcentrifuge tube labelled “B”, 100 μL OptiMEM and plasmids XPD90Gal pCMXhFXRfl, pCMXhRXRfl+PGL3-ECRE*6-luc+CMX-YFP in the ratio 2 μg:2 μg:18 μg:3 μg were added. This microcentrifuge tube “B” was then briefly vortexed and incubated at room temperature for 5 minutes.
The total volume in tube labelled “A” was then transferred in to tube labelled “B.” The mixture was then briefly vortexed and the transfection:DNA complex was then incubated for about 15-20 minutes at room temperature.
Following incubation, the transfection reagent/DNA mixture complex was then added to cells in the T175 flask and the cells were incubated at […] (O/N) at 37° C. in 5% CO2.
In a 96 well plate, a half logarithmic serial dilution was prepared. OptiMEM was used as the diluent. Using any of one of the compounds described herein, a compound stock solution of 10 mM was prepared. An initial 1:100 dilution was made into the first well for a final concentration of 100 μM. The final concentrations in the 96-well plate was prepared by using a multichannel pipette to transfer 5 μL of the diluted compound to 384-well plate in quadruplicate.
Cells in T175 flask were trypsinized and cells were resuspended in 40 mL phenol red free DMEM+10% charcoal super-stripped FBS. Typically, one T175 flask was sufficient to seed two 384 well plates. CV-1 cells were seeded at 45 μL cell suspension/well using a multi-channel pipet or a 384 multidrop dispenser. The cells were then incubated for 18 hrs, overnight.
After removing the plates from the incubator, the medium was flicked out of plate and 384 well plate was turned upside down onto paper towel. The remaining medium was gently tapped out. 15 μL lysis buffer was then added to each well using a multichannel pipet or a 384 well multi-drop dispenser. After incubation for 10 minutes at room temperature on shaker, 30 μL Luciferase buffer was added to each well. Luminescence counts were taken immediately using the Perkin Elmer Envision.
The ability of the compounds disclosed herein to […] FXR activity was quantified and the respective EC50 value was determined. Fex=fexaramine.
(In a reporter assay the amount or activity of a reporter protein is the signal.)

The target in experiment [2] is T1, FXR. The experiment is described as follows: In Vitro FXR Assay (TK): TK-ECRE-luc reporter in transfected CV-1 cells. Format: cell-based. The conditions noted are these: CV-1 cells transfected with hFXR, hRXR, 18 h incubation, luminescence. In short, it runs like this:
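Luciferase read-out from lysed CV-1 cells exposed 18 h to DMSO-diluted compounds. Cells had been transfected overnight with expression plasmids for hFXR and hRXR plus TK-ECRE-luc reporter and pCMX-YFP, grown in charcoal-stripped serum at 37 °C, 5% CO2.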

For the compound `COC(=O)/C=C/c1cccc(N(Cc2ccc(-c3ccc(N(C)C)cc3)cc2)C(=O)C2CCCC2)c1` [compound 14, (E)-Methyl 3-(3-(N-((4′-(dimethylamino)-[1,1′-biphenyl]-4-yl)methyl)cyclopentanecarboxamido)phenyl)acrylate], in experiment [1], the “Cmpd/Fex (ratio of the EC50 for the test compound relative to the EC50 of the Fexaramine control)” value was “+++ (‘+++’ means Cmpd/Fex < 10)”. In experiment [2], the concentration for a half-maximal effect (EC50) was no more than 1000 nM.

Regarding `COC(=O)/C=C/c1cccc(N(Cc2ccc(-c3ccc(N(C)C)cc3)cc2)C(=O)C2CCC2)c1` [compound 15, (E)-Methyl 3-(3-(N-((4′-(dimethylamino)-[1,1′-biphenyl]-4-yl)methyl)cyclobutanecarboxamido)phenyl) acrylate], the “Cmpd/Fex (ratio of the EC50 for the test compound relative to the EC50 of the Fexaramine control)” value in experiment [1] is reported as “+++ (‘+++’ means Cmpd/Fex < 10)”. Also, the EC50 in experiment [2] is 1000 to 10000 nM.

As for `COC(=O)/C=C/c1cccc(N(Cc2ccc(-c3ccc(N(C)C)cc3)cc2)C(=O)N2CCCCC2)c1` [compound 16], the “Cmpd/Fex (ratio of the EC50 for the test compound relative to the EC50 of the Fexaramine control)” value in experiment [1] is recorded as “++ (‘++’ means Cmpd/Fex > 10 & < 100)”. In experiment [2], this compound had a half-maximal effective concentration (EC50) of 1000 to 10000 nM.

As for `COC(=O)/C=C/c1cccc(N(Cc2ccc(-c3ccc(N(C)C)cc3)cc2)C(=O)[C@H]2CC[C@@H](O)CC2)c1` [compound 18, cis-(E)-Methyl 3-(3-(N-((4′-(dimethylamino)-[1,1′-biphenyl]-4-yl)methyl)-4-hydroxycyclohexanecarboxamido)phenyl)acrylate], the “Cmpd/Fex (ratio of the EC50 for the test compound relative to the EC50 of the Fexaramine control)” value in experiment [1] was “+++ (‘+++’ means Cmpd/Fex < 10)”. Moreover, the concentration for a half-maximal effect (EC50) in experiment [2] is no more than 1000 nM.

As to `COC(=O)/C=C/c1cccc(N(Cc2ccc(-c3ccc(N(C)C)cc3)cc2)C(=O)[C@H]2CC[C@H](O)CC2)c1` [compound 19, trans-(E)-Methyl 3-(3-(N-((4′-(dimethylamino)-[1,1′-biphenyl]-4-yl)methyl)-4-hydroxycyclohexanecarboxamido)phenyl)acrylate], the “Cmpd/Fex (ratio of the EC50 for the test compound relative to the EC50 of the Fexaramine control)” value in experiment [1] is “+++ (‘+++’ means Cmpd/Fex < 10)”. In experiment [2], this compound registered a half-maximal effective concentration (EC50) of no more than 1000 nM.

As to `COC(=O)/C=C/c1cccc(N(Cc2ccc(-c3ccc(N(C)C)c(C)c3)cc2)C(=O)C2CCCCC2)c1` [compound 20, (E)-Methyl 3-(3-(N-((4′-(dimethylamino)-3′-methyl-[1,1′-biphenyl]-4-yl)methyl)cyclohexanecarboxamido)phenyl)acrylate], the “Cmpd/Fex (ratio of the EC50 for the test compound relative to the EC50 of the Fexaramine control)” value in experiment [1] is given as “+++ (‘+++’ means Cmpd/Fex < 10)”. The EC50 in experiment [2] was no more than 1000 nM.

Regarding `COC(=O)/C=C/c1cccc(N(Cc2ccc(-c3ccccc3C)cc2)C(=O)C2CCCCC2)c1` [compound 21, (E)-Methyl 3-(3-(N-((2′-methyl-[1,1′-biphenyl]-4-yl)methyl)cyclohexanecarboxamido)phenyl)acrylate], the “Cmpd/Fex (ratio of the EC50 for the test compound relative to the EC50 of the Fexaramine control)” value in experiment [1] is recorded as “+++ (‘+++’ means Cmpd/Fex < 10)”. Further, the concentration for a half-maximal effect (EC50) in experiment [2] is 1000 to 10000 nM.

Take `COC(=O)/C=C/c1cccc(N(Cc2ccc(-c3ccncc3)cc2)C(=O)C2CCCCC2)c1` [compound 22, (E)-Methyl 3-(3-(N-(4-(pyridin-4-yl)benzyl)cyclohexanecarboxamido)phenyl) acrylate]: in experiment [1], the “Cmpd/Fex (ratio of the EC50 for the test compound relative to the EC50 of the Fexaramine control)” value is on record as “+ (‘+’ means Cmpd/Fex > 100)”. In experiment [2], this compound had an EC50 of 1000 to 10000 nM.

As for `COC(=O)/C=C/c1cccc(N(Cc2ccc(-c3ccc(C#N)cc3)cc2)C(=O)C2CCCCC2)c1` [compound 23, (E)-Methyl 3-(3-(N-((4′-cyano-[1,1′-biphenyl]-4-yl)methyl)cyclohexanecarboxamido)phenyl)acrylate], the “Cmpd/Fex (ratio of the EC50 for the test compound relative to the EC50 of the Fexaramine control)” value in experiment [1] was “+++ (‘+++’ means Cmpd/Fex < 10)”. In experiment [2], the EC50 lay within 1000 to 10000 nM.

Turning to `COC(=O)/C=C/c1cccc(N(Cc2ccc(-c3cccc(C#N)c3)cc2)C(=O)C2CCCCC2)c1` [compound 24, (E)-Methyl 3-(3-(N-((3′-cyano-[1,1′-biphenyl]-4-yl)methyl)cyclohexanecarboxamido)phenyl)acrylate], the “Cmpd/Fex (ratio of the EC50 for the test compound relative to the EC50 of the Fexaramine control)” value in experiment [1] is listed as “+++ (‘+++’ means Cmpd/Fex < 10)”. This compound also gave a half-maximal effective concentration (EC50) in experiment [2] of no more than 1000 nM.

As to `COC(=O)/C=C/c1cccc(N(Cc2ccc(-c3ccc(F)cc3)cc2)C(=O)C2CCCCC2)c1` [compound 25, (E)-Methyl 3-(3-(N-((4′-fluoro-[1,1′-biphenyl]-4-yl)methyl)cyclohexanecarboxamido)phenyl)acrylate], the “Cmpd/Fex (ratio of the EC50 for the test compound relative to the EC50 of the Fexaramine control)” value in experiment [1] is recorded as “++ (‘++’ means Cmpd/Fex > 10 & < 100)”. In experiment [2], this compound yielded a concentration for a half-maximal effect (EC50) of 1000 to 10000 nM.

Regarding `COC(=O)/C=C/c1cccc(N(Cc2ccc(-c3cccc(F)c3)cc2)C(=O)C2CCCCC2)c1` [compound 26, (E)-Methyl 3-(3-(N-((3′-fluoro-[1,1′-biphenyl]-4-yl)methyl)cyclohexanecarboxamido)phenyl)acrylate], the “Cmpd/Fex (ratio of the EC50 for the test compound relative to the EC50 of the Fexaramine control)” value in experiment [1] is “+++ (‘+++’ means Cmpd/Fex < 10)”. Also, in experiment [2], the EC50 was 1000 to 10000 nM.

For the compound `COC(=O)/C=C/c1cccc(N(Cc2ccc(-c3ccccc3F)cc2)C(=O)C2CCCCC2)c1` [compound 27, (E)-Methyl 3-(3-(N-((2′-fluoro-[1,1′-biphenyl]-4-yl)methyl)cyclohexanecarboxamido)phenyl) acrylate], the “Cmpd/Fex (ratio of the EC50 for the test compound relative to the EC50 of the Fexaramine control)” value in experiment [1] is recorded as “+++ (‘+++’ means Cmpd/Fex < 10)”. This compound also had an EC50 in experiment [2] of 1000 to 10000 nM.

As for `COC(=O)/C=C/c1cccc(N(Cc2ccc(-c3cnn(C)c3)cc2)C(=O)C2CCCCC2)c1` [compound 28, (E)-Methyl 3-(3-(N-(4-(1-methyl-1H-pyrazol-4-yl)benzyl)cyclohexanecarboxamido)phenyl)acrylate], the “Cmpd/Fex (ratio of the EC50 for the test compound relative to the EC50 of the Fexaramine control)” value in experiment [1] is on record as “++ (‘++’ means Cmpd/Fex > 10 & < 100)”. For the same compound, in experiment [2], the EC50 is 1000 to 10000 nM.

As for `COC(=O)/C=C/c1cccc(N(Cc2ccc(-c3cccnc3)cc2)C(=O)C2CCCCC2)c1` [compound 29, (E)-Methyl 3-(3-(N-(4-(pyridin-3-yl)benzyl)cyclohexanecarboxamido)phenyl) acrylate], the “Cmpd/Fex (ratio of the EC50 for the test compound relative to the EC50 of the Fexaramine control)” value in experiment [1] was “++ (‘++’ means Cmpd/Fex > 10 & < 100)”. The EC50 in experiment [2] lay within 1000 to 10000 nM.

Take `COC(=O)/C=C/c1cccc(N(Cc2ccc(-c3cccc(OC(F)(F)F)c3)cc2)C(=O)C2CCCCC2)c1` [compound 30, (E)-Methyl 3-(3-(N-((3′-(trifluoromethoxy)-[1,1′-biphenyl]-4-yl)methyl)cyclohexanecarboxamido)phenyl)acrylate]: the “Cmpd/Fex (ratio of the EC50 for the test compound relative to the EC50 of the Fexaramine control)” value in experiment [1] is on record as “+ (‘+’ means Cmpd/Fex > 100)”. Also, the EC50 in experiment [2] lay within 1000 to 10000 nM.

Usually EC50 stands for the concentration at which the effect is half-maximal.
